Experimental data taken from patent US10308960B2, “Methods for treating cells containing fusion genes” (University of Pittsburgh—of the Commonwealth System of …, priority 2014, dated 2019).
Converted amounts (≈) assume the structure as drawn.

Key:
[1] = tested on: SLC45A2-AMACR transformed PC3 cells treated with tetracycline (PC3/SLAM tet+); assay: Ebselen cell growth inhibition, PC3/SLAM tet+; assay type: cell-based, human
Description: (§1) FIG. 26. […] Untransformed RWPE1, NIH3T3 cells and SLC45A2-AMACR transformed PC3 cells treated with (PC3/SLAM tet+) or without tetracycline (PC3/SLAM tet−) were applied with indicated concentration of Ebselen. Cell growths relative to unapplied controls were examined.
(§2) Therapeutic targeting at SLC45A2-AMACR using racemase inhibitor. To investigate whether targeting SLC45A2-AMACR is a viable approach to treat prostate cancer, we chose 2 approaches: 1) To intercept SLC45A2-AMACR/SHIP2-Akt pathway with small molecules; and 2) to block the ectopic racemase activity of SLC45A2-AMACR with ebselen or trifluoro-ibuprofen. […] This is probably due to Pten negative status of PC3 cells such that Akt pathway is fully activated regardless the presence of SLC45A2-AMACR. On the other hand, when we applied ebselen, the potent inhibitor of racemase of AMACR, to SLC45A2-AMACR expressing PC3 cells, 5 fold higher sensitivity of cell growth inhibition was found for PC3 cells transformed with pCDNA4-SLC45A2-AMACR-FLAG/pCDNA6 over the controls.

[2] = tested on: SLC45A2-AMACR transformed PC3 cells without tetracycline (PC3/SLAM tet−); assay: Ebselen cell growth inhibition, PC3/SLAM tet−; assay type: cell-based; conditions: Homo sapiens, PC-3
Description: as §1, §2

NIH3T3 cells = assay: Ebselen cell growth inhibition, NIH3T3; assay type: cell-based; conditions: Mus musculus
Description: as §1, §2

RWPE1 cells = assay: Ebselen cell growth inhibition, RWPE1; assay type: cell-based; conditions: Homo sapiens, RWPE-1
Description: as §1, §2

[3] = tested on: PC3 cells expressing MAN2A1-FER; assay: Killing of MAN2A1-FER expressing PC3 cells by kinase inhibitors; assay type: cell-based, human; conditions: for cell death: PC3 transformed with pCDNA4-MAN2A1-FER-FLAG/pCDNA6, MAN2A1-FER expressing, Crisotinib low dosage 24 hours; for specific killing of MAN2A1-FER expressing cells (FIG. 23): expression induced with 5 μg/mL tetracycline
[4] = tested on: PC3 cells not expressing MAN2A1-FER (Tet−); assay: Killing of PC3 cells not expressing MAN2A1-FER (Tet−) by kinase inhibitors; assay type: cell-based, human; conditions: same treatment, cells not expressing the fusion protein (Tet−)
Description: FIG. 23. […] Prostate cancer cell line PC3 was transformed with pCDNA4-MAN2A1-FER-FLAG/pCDNA6. Expression of MAN2A1-FER was induced with 5 μg/mL tetracycline. Cells not treated with tetracycline nor any drug were used as background controls.
The second approach is to target EGFR activation by EGFR inhibitors. These include erlotinib, cetuximab, […], canertinib and […]. Many of these drugs were FDA approved and is widely used in a variety of human solid tumors. To interrogate the effectiveness of EGFR activation interruption in treating prostate cancer, we treated MAN2A1-FER transformed PC3 cells with canertinib.

[5] = tested on: PC3 cells containing TMEM135-CCDC67 breakpoint; assay: Ganciclovir cell death after co-transfection of TK donor DNA and nickase-gRNA vector, breakpoint cells; assay type: cell-based, human
Description: (§3) FIG. 28A-B. Genetic therapy targeting at TMEM135-CCDC67 genome breakpoint.
(§4) The technique described above was applied to cells having the TMEM135-CCDC67 breakpoint. Since none of the fusion genes identified so far was present in prostate cancer cell lines, a TMEM135-CCDC67 genome breakpoint was created that is identical to the prostate cancer sample were analyzed. The expression of the TMEM135-CCDC67 breakpoint was driven by a CMV promoter. Subsequently, a donor DNA was constructed that encompassed HSV-1 TK and the splicing sites of TMEM135 exon 14. When this donor DNA was co-transfected with a vector that expresses gRNA targeting at the TMEM135-CCDC67 breakpoint into PC3 cells containing this genome breakpoint, integration of TK into the genome was identified (FIG. 28A). […] This is remarkable in considering only 5-10% transfection efficiency using conventional liposome method. […] In light of this promising result, both TMEM135-CCDC67-TK cassette and NicKase-gRNATMEM135-CCDC67-BrkPt DNA are now in the process of packaging into Adenovirus. We will infect the recombinant virus into these cells in the future experiments. This will dramatically improve the delivery efficiency in the subsequent animal study and probably human.

[6] = tested on: PC3 cells without TMEM135-CCDC67 breakpoint; assay: Ganciclovir cell death after co-transfection of TK donor DNA and nickase-gRNA vector, cells without breakpoint; assay type: cell-based, human; conditions: same treatment
Description: as §3, §4

[7] = tested on: PC3 cells containing TMEM135-CCDC67 breakpoint (PC3 + pCMV-BP); assay: FACS analysis of apoptotic cells (Annexin V), PC3 with breakpoint; assay type: cell-based, human; conditions: PC3 with breakpoint infected with both adenoviruses
Description: (§5) FIG. 31A-B. Treatment with nucleotide analogue ganciclovir kills cancer cells expressing EGFP-tk. (A) PC3 or DU145 cells containing the TMEM135-CCDC67 fusion gene were infected with pAD5-Cas9^D10A-gRNA^TMEM135int13-gRNA^CCDC67int9 and pAD-TMEM135int13-EGFP-tk-CCDC67int9. These cells were then incubated with various concentrations of ganciclovir for 24 hours. Cell deaths were then quantified with phycoerythrin labeled Annexin V through flow cytometer. PC3 or DU145 cells harboring no TMEM135-CCDC67 breakpoint were used as controls. (B) Representative sample of cell death induced by ganciclovir on cells infected with pAD5-Cas9^D10A-gRNA^TMEM135int13-gRNA^CCDC67int9 and pAD-TMEM135int13-EGFP-tk-CCDC67int9, and treated with 5 μg/ml ganciclovir. PC3 or DU145 cells harboring no TMEM135-CCDC67 breakpoint were used as controls. Apoptosis was indicated by Annexin V staining.
(§6) Fluorescence activated cell sorting (FACS) analysis of apoptotic cells. The assays were previously described.^8-16 Briefly, the cells treated with pAD5-Cas9^D10A-gRNA^TMEM135int13-gRNA^CCDC67int9/pAD-TMEM135int13-EGFP-tk-CDC67int9, and various concentrations of ganciclovir were trypsinized and washed twice with cold PBS. […] The fluorescence stained cells were analyzed at the fluorescence emission at 533 nm (FL2). […] For each acquisition, 10,000 to 20,000 cells were sorted based on the fluorescence color of the cells. […]

[8] = tested on: DU145 cells containing TMEM135-CCDC67 breakpoint (DU145 + pCMV-BP); assay: FACS analysis of apoptotic cells (Annexin V), DU145 with breakpoint; assay type: cell-based; conditions: DU145 with breakpoint infected with both adenoviruses
Description: as §5, §6

[9] = tested on: PC3 cells harboring no TMEM135-CCDC67 breakpoint (PC3 + pCMV); assay: FACS analysis of apoptotic cells (Annexin V), PC3 without breakpoint; assay type: cell-based, human; conditions: PC3, equally infected, ganciclovir up to 100 μg/ml
Description: as §5, §6

[10] = tested on: DU145 cells harboring no TMEM135-CCDC67 breakpoint (DU145 + pCMV); assay: FACS analysis of apoptotic cells (Annexin V), DU145 without breakpoint; assay type: cell-based; conditions: DU145, equally infected, ganciclovir up to 100 μg/ml
Description: as §5, §6

In the case of O=c1c2ccccc2[se]n1-c1ccccc1 [Ebselen, ebselen], the IC50 ([1]; Homo sapiens, PC-3, PC3/SLAM tet+) is reported as 37 µM, the “higher sensitivity of cell growth inhibition over the controls” value ([1]; PC3 transformed with pCDNA4-SLC45A2-AMACR-FLAG/pCDNA6 vs controls) is reported as 5 fold and the IC50 [2] is reported as 173 µM. It also gave an IC50 (NIH3T3 cells) of over 300 µM and an IC50 (RWPE1 cells) of over 300 µM.
In the case of C[C@@H](Oc1cc(-c2cnn(C3CCNCC3)c2)cnc1N)c1c(Cl)ccc(F)c1Cl [Crisotinib], the cell death [3] is reported as 31%, the “lowering of cancer killing EC50 by expression of MAN2A1-FER” value ([3]; dosage effect analysis, expressing vs not expressing) is reported as about 100 fold and the “specific killing of MAN2A1-FER expressing cells (FIG. 23)” value [3] is reported as “specifically kills cells expressing MAN2A1-FER”. The “killing of cells that do not express MAN2A1-FER” value [4] was “hardly killed”.
In the case of C=CC(=O)Nc1cc2c(Nc3ccc(F)c(Cl)c3)ncnc2cc1OCCCN1CCOCC1 [canertinib], the cell death [3] is reported as 34%, the “specific killing of MAN2A1-FER expressing cells (FIG. 23)” value [3] is reported as “specifically kills cells expressing MAN2A1-FER” and the “killing of cells that do not express MAN2A1-FER” value [4] is reported as “minimal”.
Nc1nc2c(ncn2COC(CO)CO)c(=O)[nH]1 [ganciclovir, 9-(1,3-dihydroxy-2-propoxymethyl)guanine] was tested, and the “increase of cell death” value ([5]; PC3 with breakpoint co-transfected with donor DNA and gRNA vector, liposome method) was 8 fold, the “specific killing of breakpoint containing cells (FIG. 28B)” value ([5]; transfected with pTMEM135-CCDC67-TK-GFP and pNicKase-RFP-gRNA-TMEM135-CCDC67-BrkPt) was “specific killing” and the cell death [6] was “minimal cell death”. The EC50 ([7]; Homo sapiens, PC-3, 24 hours, read-out: ganciclovir concentration at which killing reached 50% of its maximal level) was 0.075 µg/mL (≈ 0.294 µM), the “ganciclovir concentration at which killing was at the peak” value [7] was 5 µg/mL and the “ganciclovir concentration at which killing was at the peak” value [8] was 5 µg/mL. For the same compound, the EC50 ([8]; Homo sapiens, DU-145, 24 hours, read-out: ganciclovir concentration at which killing reached 50% of its maximal level) was 0.075 µg/mL (≈ 0.294 µM), the “cell deaths in cells containing no breakpoint” value [9] was “No significant cell deaths” and the “cell deaths in cells containing no breakpoint” value [10] was “No significant cell deaths”.
With Cn1cnc2c(F)c(Nc3ccc(Br)cc3Cl)c(C(=O)NOCCO)cc21 [AZD6244] the “differential killing effect (MAN2A1-FER expressing vs not)” value ([3]; MEK interception, data not shown) was “largely moderated and vanished”.
